Assay results reported in patent publication US7494987B2, “Agent for treating respiratory diseases containing 4-hydroxypiperidine derivative as active ingredient” (priority 2002, dated 2009).

Assays:
[1] = tested on: liver microsomes and hepatocytes of monkeys; experiment: Metabolic stability in liver microsomes and hepatocytes, monkeys; type: in vitro ADME
[2] = Pharmacokinetics, time-course of plasma concentration after single oral treatment; type: in vivo, rhesus monkeys; conditions: for bioavailability: 3- or 4-year-old male rhesus monkeys; for area under the plasma concentration-time curve (AUC), dependence on dose / maximum plasma concentration (Cmax), dependence on dose / relationship between the dose and the plasma concentration: rhesus monkeys
From the text: The compound of Example 36 or Example 26 was studied about time-course of plasma concentration after single oral treatment to 3- or 4-year-old male rhesus monkeys. […] The relationship between the dose and the plasma concentration was linear. […] Therefore, it can be considered that these compounds are unlikely to be metabolized by first pass effect.

[3] = tested on: male rhesus monkeys; experiment: Holter ECG test in rhesus monkeys; type: in vivo; conditions: oral, 4-year-old male rhesus monkeys
Method: In Holter ECG test, the compound of Example 36 or Example 26 was orally given to 4-year-old male rhesus monkeys at 40 mg/kg and 80 mg/kg, respectively.

[4] = tested on: Citric Acid-Induced Cough Reflex in Guinea Pigs; experiment: Inhibitory effect on citric acid-induced cough reflex in guinea pigs (Experimental Example 1-1, plethysmograph); type: in vivo; conditions: oral, 30 mg/kg, cough measured 1 hr after treatment
Method: Guinea pigs were fasted overnight. They were fixed to a plethysmograph, and then the change of inner pressure in the plethysmograph (body side) was recorded on an ink-recording paper (Nihon Kohden Corporation; WI-642G) via the differential pressure transducer (Nihon Kohden Corporation; TP-602T) and the respiration amplifier (Nihon Kohden Corporation; AR-601G). Using a nebulizer (OMRON Corporation; NE-U12), 20 W/V % citric acid solution was sprayed into the plethysmograph (head side) for 2 min (about 1 mL/min). The number of cough response for 15 min after the spray was measured.
(§1) The cough response was measured 3 hrs before and 1 hr after oral treatment. The test compound was not administered to the guinea pigs showing 5 coughs response or less before the treatment. The ratio of cough response between before and after the treatment (Post/Pre×100) was calculated, and the percent inhibition of the test compound on cough reflex induced by citric acid was determined according to the following formula: [(CRRcontrol−CRRtest)/(CRRcontrol)]×100 (%) • CRRcontrol: Ratio (%) of cough response in the control group • CRRtest: Ratio (%) of cough response in the compound-treated group

[5] = tested on: human drug-metabolizing enzymes; experiment: Inhibitory effect on human drug-metabolizing enzymes; type: in vitro ADME
[6] = tested on: Wistar Hannover female rats; experiment: Toxicological study, 14-day repeated oral dose in rats; type: in vivo; conditions: 400 mg/kg/day once daily for 14 days
Method: The compound of Example 26 was orally given to 6-week-old Wistar Hannover female rats at 400 mg/kg/day once daily for 14 days.

[7] = tested on: male rhesus monkeys; experiment: Toxicological study, 14-day repeated oral dose in rhesus monkeys; type: in vivo
Method: The compound of Example 36 or Example 26 was orally given to 3-year-old male rhesus monkeys at 20 mg/kg/day or 40 mg/kg/day, respectively, once daily for 14 days.

[8] = tested on: liver microsomes and hepatocytes of rats; experiment: Metabolic stability in liver microsomes and hepatocytes, rats; type: in vitro ADME
[9] = tested on: liver microsomes and hepatocytes of humans; experiment: Metabolic stability in liver microsomes and hepatocytes, humans; type: in vitro ADME
[10] = tested on: liver microsomes and hepatocytes of dogs; experiment: Metabolic stability in liver microsomes and hepatocytes, dogs; type: in vitro ADME
[11] = tested on: Wistar Hannover female rats; experiment: Toxicological study, oral dose in rats; type: in vivo; conditions: 40 mg/kg, 6-week-old rats
Method: The compound of Example 36 was orally given to 6-week-old Wistar Hannover female rats at 40 mg/kg.

[12] = tested on: Citric Acid-Induced Cough Reflex in Guinea Pigs; experiment: Inhibitory action on citric acid-induced cough reflex in guinea pigs (Experimental Example 1-2, nasal inhalation-exposure apparatus); type: in vivo; conditions: oral, 30 mg/kg, cough measured 1 hr after treatment
Method: Guinea pigs were fasted overnight. They were fixed to an nasal inhalation-exposure apparatus for small animals (M.I.P.S. Co., Ltd.), and then 20 W/V % citric acid solution was sprayed into the plethysmograph for 2 min (about 1 mL/min) using a nebulizer (M.I.P.S. Co., Ltd.). The number of cough response for 15 min after the spray was measured.
as §1, with “5 cough responses” for “5 coughs response”, “compound-treated group.” for “compound-treated group”

[13] = 40 mg/kg/day once daily for 14 days
[14] = 20 mg/kg/day once daily for 14 days

Compound | metabolic stability in liver microsomes and hepatocytes [1] | bioavailability [2] | area under the plasma concentration-time curve (AUC), dependence on dose [2] | maximum plasma concentration (Cmax), dependence on dose [2] | relationship between the dose and the plasma concentration [2] | inhibitory effect on human drug-metabolizing enzymes [5] | metabolic stability in liver microsomes and hepatocytes [8] | metabolic stability in liver microsomes and hepatocytes [9] | metabolic stability in liver microsomes and hepatocytes [10] | other results
CN(CC1(O)CCN(CCc2ccc(C#N)cc2)CC1)c1ccc(C(=O)O)cc1.Cl [Example 26, 4-({1-[2-(4-cyanophenyl)ethyl]-4-hydroxypiperidin-4-ylmethyl}methylamino)benzoic acid monohydrochloride] | metabolically stable | high | increased almost in proportion to the doses | increased almost in proportion to the doses | linear | almost no inhibitory effect | metabolically stable | metabolically stable | metabolically stable | effect on electrocardiogram ([3]; 80 mg/kg): no effect; Percent inhibition on cough reflex [4]: 59%; abnormality in general behaviors, weight gains, and food consumptions [6]: no abnormality; findings in hematological and biochemical examinations, organ weights and histopathological tests [6]: No abnormal findings; survival until 24 hours after the final treatment [6]: survived; abnormality in weight gains and general behaviors [7, 13]: no abnormality; findings in hematological and biochemical examinations, organ weights and histopathological tests [7, 13]: No apparent toxicological findings; survival until 24 hours after the final treatment [7, 13]: survived
Cl.N#Cc1ccc(CCN2CCC(O)(COc3ccc(C(=O)O)cc3)CC2)cc1 [Example 36, 4-{1-[2-(4-cyanophenyl)ethyl]-4-hydroxypiperidin-4-ylmethoxy}benzoic acid monohydrochloride] | metabolically stable | high | increased almost in proportion to the doses | increased almost in proportion to the doses | linear | almost no inhibitory effect | metabolically stable | metabolically stable | metabolically stable | effect on electrocardiogram ([3]; 40 mg/kg): no effect; abnormality in weight gains and general behaviors [7, 14]: no abnormality; findings in hematological and biochemical examinations, organ weights and histopathological tests [7, 14]: No apparent toxicological findings; survival until 24 hours after the final treatment [7, 14]: survived; abnormality in general behaviors [11]: no abnormality; survival during the examination period [11]: survived
CN(CC1(O)CCN(CCc2ccc(C(F)(F)F)cc2)CC1)c1ccc(C(=O)O)cc1.Cl [Example 35, 4-({4-hydroxy-1-[2-(4-trifluoromethylphenyl)ethyl]piperidin-4-ylmethyl}methylamino)benzoic acid monohydrochloride] | – | – | – | – | – | – | – | – | – | Percent inhibition on cough reflex [12]: 43%; melting point: 235.1 to 246.9 °C
